Experiment [1] concerns the target T1, UGDH S316A (Homo sapiens, UniProt O60701, S316A).
T1 construct: six-histidine; made in house; host or cells: E. coli BL21(DE3)
T1 sequence (O60701 1-494 S316A): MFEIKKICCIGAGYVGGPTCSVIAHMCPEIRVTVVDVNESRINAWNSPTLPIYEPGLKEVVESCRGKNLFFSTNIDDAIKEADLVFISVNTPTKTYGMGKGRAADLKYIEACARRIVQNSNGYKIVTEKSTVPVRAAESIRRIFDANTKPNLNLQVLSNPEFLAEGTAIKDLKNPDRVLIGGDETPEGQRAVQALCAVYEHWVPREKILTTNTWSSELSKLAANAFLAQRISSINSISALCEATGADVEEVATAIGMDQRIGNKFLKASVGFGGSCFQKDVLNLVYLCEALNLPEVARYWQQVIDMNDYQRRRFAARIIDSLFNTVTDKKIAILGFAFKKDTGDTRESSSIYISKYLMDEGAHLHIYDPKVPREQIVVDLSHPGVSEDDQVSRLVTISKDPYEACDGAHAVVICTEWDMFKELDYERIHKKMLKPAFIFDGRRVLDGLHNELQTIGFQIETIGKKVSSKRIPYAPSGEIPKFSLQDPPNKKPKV
Kind of experiment: UDP-Xyl inhibition of the catalytic reaction, UGDH S316A. It counts as biochemical. As to conditions: sub-saturating UDP-Glc and NAD+, read-out: UDP-Xylose IC50. From the text: (§1) Finally, we tested whether the S316 point mutants impacted inhibition of UGDH by UDP-xylose (UDP-Xyl), which is an endogenous competitive inhibitor of UGDH with nM affinity that causes a conformational change in the crystal structure exposing one of the dimer interfaces. We measured the concentration dependence of UDP-Xyl inhibition in the context of the catalytic reaction at sub-saturating UDP-Glc and NAD^+ and used the resultant curves to calculate the IC50 for UGDH S316A and S316D (Table 1). […] Binding of UDP-Xyl to UGDH independently of catalysis was measured by ITC. […]
(§2) Purified S316 mutants were compared to the UGDH WT enzyme using the following approaches as previously described. Enzymatic activity was evaluated by steady state kinetics in the presence and absence of the endogenous inhibitor UDP-Xylose to compare Michaelis constants and IC50 values. Intrinsic stability was assessed by thermal denaturation and quaternary structure was determined by size exclusion chromatography. Binding of UDP-Xylose to recombinant UGDH and mutants was measured by isothermal titration calorimetry using the MicroCal PEAQ-ITC (Malvern Panalytical). […] Binding heats were corrected for the heat of dilution and analyzed using the MicroCal PEAQ-ITC Analysis Software, employing a single-site binding model to determine Kd values.

The target in experiment [2] is T2, UGDH S316D (Homo sapiens, UniProt O60701, S316D).
T2 construct: six-histidine; made in house; host or cells: E. coli BL21(DE3)
T2 sequence (O60701 1-494 S316D): T1 sequence (O60701 1-494 S316A) with A316D
As to the kind of experiment: UDP-Xyl inhibition of the catalytic reaction, UGDH S316D. As to conditions: sub-saturating UDP-Glc and NAD+, read-out: UDP-Xylose IC50. It counts as biochemical.
Excerpt: as §1, §2

The target of experiment [3] is T3, UGDH WT (Homo sapiens, UniProt O60701).
T3 construct: six-histidine; made in house; host or cells: E. coli BL21(DE3)
T3 sequence (O60701 1-494): T1 sequence (O60701 1-494 S316A) with A316S
As to the kind of experiment: UDP-Xyl inhibition of the catalytic reaction, UGDH WT. As to conditions: sub-saturating UDP-Glc and NAD+, read-out: UDP-Xylose IC50. It counts as biochemical.
Excerpt: as §1, §2

For experiment [4], the target named is T1, UGDH S316A. Kind of experiment: isothermal titration calorimetry, UDP-Xylose binding to UGDH S316A. As to conditions: ITC, single-site binding model.
Excerpt: as §1, §2
(In general: ITC needs no label: the signal is the heat of the interaction.)

Experiment [5] concerns the target T2, UGDH S316D. Kind of experiment: isothermal titration calorimetry, UDP-Xylose binding to UGDH S316D. As to conditions: ITC.
Excerpt: as §1, §2

Experiment [6] addresses T3, UGDH WT. Kind of experiment: isothermal titration calorimetry, UDP-Xylose binding to UGDH WT. As to conditions: ITC, single-site binding model.
Excerpt: as §1, §2

For experiment [7], the target named is T4, UGDH S316 phosphorylation by RSK2, S6K1, SGK1 (Homo sapiens, UniProt O60701).
T4 construct: made in house
T4 sequence (O60701 1-494): T1 sequence (O60701 1-494 S316A) with A316S
As to the kind of experiment: in vitro kinase assay, phosphorylation of UGDH S316. The experiment is classed as biochemical. As to conditions: in vitro kinase assays with RSK2, S6K1, SGK1; data not shown. Here is the method: Due to the location of UGDH S316 at the dimeric interface, we tested whether UGDH oligomeric status influenced the ability of each kinase to phosphorylate UGDH S316. In vitro kinase assays were performed to compare phosphorylation of UGDH S316 in the WT enzyme versus the UGDH T325D obligate dimer mutant. All three kinases produced a phosphorylation band in the dimeric UGDH T325D as expected.
Recombinant UGDH (100 μg) was incubated for 2 h at 30 °C with 1 μg of each kinase and either activated by addition of ATP (200 μM) or a conjugatable ATP analogue, γ-[(6-Azidohexyl)-imido]-ATP. Phosphorylated UGDH was detected by western analysis (using anti-pAkT substrate antibody) or by SDS-PAGE following reaction with tetramethylrhodamine (TAMRA) alkyne, copper, THPTA, and sodium ascorbate.

Numbering of substitutions follows the chain as printed.

Usually IC50 stands for the point on the concentration scale where inhibition reaches its midpoint. For orientation: Kd means a measure of binding affinity in units of concentration.

With `O=c1ccn([C@@H]2O[C@H](COP(=O)(O)OP(=O)(O)O[C@H]3OC[C@@H](O)[C@H](O)[C@H]3O)[C@@H](O)[C@H]2O)c(=O)[nH]1` [UDP-Xylose], the IC50 was 250 ± 60 nM in experiment [1], 250 ± 30 nM in experiment [2] and 220 ± 50 nM in experiment [3]. Moreover, the Kd in experiment [4] turned out to be 71 ± 20 nM; in experiment [5] (UGDH S316D, single-site binding model) it was 150 ± 30 nM; in experiment [6] it was 91 ± 35 nM. Further, the “Kd for UGDH S316D relative to Kd values for UGDH WT and S316A” value in experiment [5] (higher for S316D) is “≈ 2 fold”. For the same compound, the “effect of UDP-Xyl on phosphorylation of UGDH S316” value in experiment [7] is reported as “did not impact phosphorylation”.

The record behind these values is paper PMC13330650 (Matrix biology : journal of the International Society for …, 2025).
